Literature values in patent US6306864A, “Atropisomers of 3-aryl-4(3H)-quinazolinones and their use as AMPA-receptor antagonists” (Pfizer Inc., priority 2000, dated 2001).

What was measured:
[1] = tested on: rat global ischemia models
[2] = tested on: global and focal ischemic damage; settings: focal and global ischemia models

SMILES | neuroprotection in rat global ischemia models [1] | prevention of global and focal ischemic damage [2]
CC1=NN=C(c2ccc(N)cc2)c2cc3c(cc2C1)OCO3 [GKYI 52466] | effective neuroprotective agent | –
NS(=O)(=O)c1cccc2c1c([N+](=O)[O-])cc1[nH]c(=O)c(=O)[nH]c12 [NBQX, 2,3-dihydroxy-6-nitro-7-sulfamoylbenzo[f-]quinoxaline] | – | effective in preventing global and focal ischemic damage
